Measurements reported in PubChem BioAssay AID2060487 (Molecular Pharmacology Branch, DTP, NCI, 2025).
Each block holds one compound with its values, some of them ahead of it.

Tested on: 997537-175-T-J1-PDC complex spheroid viability
Test: Anticancer human tumor 997537-175-T-J1-PDC patient-derived colon adenocarcinoma cell line growth inhibition [GQUAD]
Details: for IC50: curve of first compound; for viability, T/C: stronger effect = lower value
Summary of the method: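 Multi-cell-type spheroids of tumor cells with HUVEC and mesenchymal stem cells, treated with drug combinations. Concentrations descend in half-log steps from near clinical Cmax, or from 10 microM where Cmax is unknown; viability read-out.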

[1] = second compound 0.0316 µM, first compound 0.0316 µM
[2] = second compound 0.0316 µM, first compound 0.1 µM
[3] = second compound 0.0316 µM, first compound 0.316 µM
[4] = second compound 0.0316 µM, first compound 1 µM
[5] = second compound 0.0316 µM, first compound 3.16 µM
[6] = second compound 0.0316 µM, first compound 10 µM
[7] = second compound 0.1 µM, first compound 0.0316 µM
[8] = second compound 0.1 µM, first compound 0.1 µM
[9] = second compound 0.1 µM, first compound 0.316 µM
[10] = second compound 0.1 µM, first compound 1 µM
[11] = second compound 0.1 µM, first compound 3.16 µM
[12] = second compound 0.1 µM, first compound 10 µM
[13] = second compound 0.316 µM, first compound 0.0316 µM
[14] = second compound 0.316 µM, first compound 0.1 µM
[15] = second compound 0.316 µM, first compound 0.316 µM
[16] = second compound 0.316 µM, first compound 1 µM
[17] = second compound 0.316 µM, first compound 3.16 µM
[18] = second compound 0.316 µM, first compound 10 µM
[19] = second compound 1 µM, first compound 0.0316 µM
[20] = second compound 1 µM, first compound 0.1 µM
[21] = second compound 1 µM, first compound 0.316 µM
[22] = second compound 1 µM, first compound 1 µM
[23] = second compound 1 µM, first compound 3.16 µM
[24] = second compound 1 µM, first compound 10 µM
[25] = second compound 3.16 µM, first compound 0.0316 µM
[26] = second compound 3.16 µM, first compound 0.1 µM
[27] = second compound 3.16 µM, first compound 0.316 µM
[28] = second compound 3.16 µM, first compound 1 µM
[29] = second compound 3.16 µM, first compound 3.16 µM
[30] = second compound 3.16 µM, first compound 10 µM
[31] = second compound 10 µM, first compound 0.0316 µM
[32] = second compound 10 µM, first compound 0.1 µM
[33] = second compound 10 µM, first compound 0.316 µM
[34] = second compound 10 µM, first compound 1 µM
[35] = second compound 10 µM, first compound 3.16 µM
[36] = second compound 10 µM, first compound 10 µM
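Also: spheroids exposed to the agents for 7 days.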
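For viability, T/C in this document: 100% = DMSO vehicle control viability.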

SMILES: C=CC(=O)N1CCN(c2nc(=O)n(-c3c(C)ccnc3C(C)C)c3nc(-c4c(O)cccc4F)c(F)cc23)C(C)C1 (stereo unspecified) + Cc1[nH]c2ccc(F)cc2c1-c1nc2c3cccnc3c3ncccc3c2[nH]1
- IC50 (second compound 0.0316 µM): > 10 µM
- IC50 (second compound 0.1 µM): > 10 µM
- IC50 (second compound 0.316 µM): > 10 µM
- IC50 (second compound 1 µM): > 10 µM
- IC50 (second compound 3.16 µM): > 10 µM
- IC50 (second compound 10 µM): > 10 µM
- viability, T/C [1]: 102%
- viability, T/C [2]: 89.9%
- viability, T/C [3]: 86.2%
- viability, T/C [4]: 92.5%
- viability, T/C [5]: 91.7%
- viability, T/C [6]: 97.5%
- viability, T/C [7]: 91.1%
- viability, T/C [8]: 71.1%
- viability, T/C [9]: 87.9%
- viability, T/C [10]: 75.4%
- viability, T/C [11]: 101%
- viability, T/C [12]: 92%
- viability, T/C [13]: 92.4%
- viability, T/C [14]: 65.8%
- viability, T/C [15]: 74.8%
- viability, T/C [16]: 85.9%
- viability, T/C [17]: 95.3%
- viability, T/C [18]: 96.5%
- viability, T/C [19]: 92.8%
- viability, T/C [20]: 89.9%
- viability, T/C [21]: 87.9%
- viability, T/C [22]: 83.2%
- viability, T/C [23]: 90.2%
- viability, T/C [24]: 97.6%
- viability, T/C [25]: 80.7%
- viability, T/C [26]: 72.5%
- viability, T/C [27]: 74.3%
- viability, T/C [28]: 89%
- viability, T/C [29]: 100%
- viability, T/C [30]: 80%
- viability, T/C [31]: 82.3%
- viability, T/C [32]: 75.8%
- viability, T/C [33]: 87.3%
- viability, T/C [34]: 69.8%
- viability, T/C [35]: 79.3%
- viability, T/C [36]: 84.3%

SMILES: O=C(c1cc(Cc2n[nH]c(=O)c3ccccc23)ccc1F)N1CCN(C(=O)C2CC2)CC1 + Cc1[nH]c2ccc(F)cc2c1-c1nc2c3cccnc3c3ncccc3c2[nH]1
- IC50 (second compound 0.0316 µM): > 10 µM
- IC50 (second compound 0.1 µM): > 10 µM
- IC50 (second compound 0.316 µM): > 10 µM
- IC50 (second compound 1 µM): > 10 µM
- IC50 (second compound 3.16 µM): > 10 µM
- IC50 (second compound 10 µM): > 10 µM
- viability, T/C [1]: 99.8%
- viability, T/C [2]: 96.1%
- viability, T/C [3]: 93.2%
- viability, T/C [4]: 81.6%
- viability, T/C [5]: 79%
- viability, T/C [6]: 102%
- viability, T/C [7]: 91.8%
- viability, T/C [8]: 95.7%
- viability, T/C [9]: 77.1%
- viability, T/C [10]: 67.8%
- viability, T/C [11]: 89.5%
- viability, T/C [12]: 94.1%
- viability, T/C [13]: 76.1%
- viability, T/C [14]: 103%
- viability, T/C [15]: 90%
- viability, T/C [16]: 88.5%
- viability, T/C [17]: 98.4%
- viability, T/C [18]: 94.6%
- viability, T/C [19]: 76.9%
- viability, T/C [20]: 96.7%
- viability, T/C [21]: 73.6%
- viability, T/C [22]: 101%
- viability, T/C [23]: 106%
- viability, T/C [24]: 109%
- viability, T/C [25]: 90.7%
- viability, T/C [26]: 89.9%
- viability, T/C [27]: 100%
- viability, T/C [28]: 81.4%
- viability, T/C [29]: 94.4%
- viability, T/C [30]: 94.4%
- viability, T/C [31]: 71.9%
- viability, T/C [32]: 84.1%
- viability, T/C [33]: 96.7%
- viability, T/C [34]: 60.5%
- viability, T/C [35]: 79.8%
- viability, T/C [36]: 83.6%

- IC50 (second compound 0.0316 µM): > 0.316 µM
- IC50 (second compound 0.1 µM): > 0.316 µM
- IC50 (second compound 0.316 µM): 0.232 µM
- IC50 (second compound 1 µM): > 0.316 µM
- IC50 (second compound 3.16 µM): 0.226 µM
- IC50 (second compound 10 µM): 0.281 µM
SMILES: Cc1[nH]c2ccccc2c1CCNCc1ccc(/C=C/C(=O)NO)cc1 + Cc1cnc(CNC(=O)c2c(=O)c3ccc(N4CCCN(C)CC4)nc3n3c2sc2ccccc23)cn1
- viability, T/C (second compound 0.0316 µM, first compound 0.000999 µM): 87.7%
- viability, T/C (second compound 0.0316 µM, first compound 0.00316 µM): 99%
- viability, T/C (second compound 0.0316 µM, first compound 0.00999 µM): 98%
- viability, T/C [1]: 80.6%
- viability, T/C (second compound 0.0316 µM, first compound 0.0999 µM): 82.2%
- viability, T/C [3]: 52.7%
- viability, T/C (second compound 0.1 µM, first compound 0.000999 µM): 98.3%
- viability, T/C (second compound 0.1 µM, first compound 0.00316 µM): 94.9%
- viability, T/C (second compound 0.1 µM, first compound 0.00999 µM): 88.9%
- viability, T/C [7]: 90.5%
- viability, T/C (second compound 0.1 µM, first compound 0.0999 µM): 80.2%
- viability, T/C [9]: 59.5%
- viability, T/C (second compound 0.316 µM, first compound 0.000999 µM): 105%
- viability, T/C (second compound 0.316 µM, first compound 0.00316 µM): 90.7%
- viability, T/C (second compound 0.316 µM, first compound 0.00999 µM): 88.6%
- viability, T/C [13]: 84.1%
- viability, T/C (second compound 0.316 µM, first compound 0.0999 µM): 99.9%
- viability, T/C [15]: 33.9%
- viability, T/C (second compound 1 µM, first compound 0.000999 µM): 76.1%
- viability, T/C (second compound 1 µM, first compound 0.00316 µM): 87.6%
- viability, T/C (second compound 1 µM, first compound 0.00999 µM): 101%
- viability, T/C [19]: 102%
- viability, T/C (second compound 1 µM, first compound 0.0999 µM): 81.8%
- viability, T/C [21]: 53.1%
- viability, T/C (second compound 3.16 µM, first compound 0.000999 µM): 96%
- viability, T/C (second compound 3.16 µM, first compound 0.00316 µM): 100%
- viability, T/C (second compound 3.16 µM, first compound 0.00999 µM): 103%
- viability, T/C [25]: 81.4%
- viability, T/C (second compound 3.16 µM, first compound 0.0999 µM): 110%
- viability, T/C [27]: 30.2%
- viability, T/C (second compound 10 µM, first compound 0.000999 µM): 99.2%
- viability, T/C (second compound 10 µM, first compound 0.00316 µM): 108%
- viability, T/C (second compound 10 µM, first compound 0.00999 µM): 92.8%
- viability, T/C [31]: 94.4%
- viability, T/C (second compound 10 µM, first compound 0.0999 µM): 108%
- viability, T/C [33]: 44.3%
